Experimental data taken from patent US7141583B2, “Oxazolidinone derivatives with antibiotic activity” (AstraZeneca AB, priority 2000, dated 2006).
Values after ≈ are worked out from the molar mass of the structure shown.

Experiments:
[1] = test system: Staphylococcus aureus Oxford; experiment: MIC by agar-dilution, Staphylococcus aureus Oxford; format: cell-based; conditions: 37° C., 24 hours
Method: (§1) The following results were obtained on a standard in-vitro test system. The activity is described in terms of the minimum inhibitory concentration (MIC) determined by the agar-dilution technique with an inoculum size of 10^4 CFU/spot. Typically, compounds are active in the range 0.01 to 256 μg/ml.
(§2) Staphylococci were tested on agar, using an inoculum of 10^4 CFU/spot and an incubation temperature of 37° C. for 24 hours—standard test conditions for the expression of methicillin resistance.

[2] = test system: Staphylococcus aureus Novb. Res (Novobiocin resistant); experiment: MIC by agar-dilution, Staphylococcus aureus Novb. Res; format: cell-based; conditions: 37° C., 24 hours
Method: as §1, §2

[3] = test system: Staphylococcus aureus MRQR (methicillin and quinolone resistant); experiment: MIC by agar-dilution, Staphylococcus aureus MRQR; format: cell-based; conditions: 37° C., 24 hours
Method: as §1, §2

[4] = test system: Coagulase Negative Staphylococci MS (methicillin sensitive); experiment: MIC by agar-dilution, Coagulase Negative Staphylococci MS; format: cell-based; conditions: 37° C., 24 hours
Method: as §1, §2

[5] = test system: Coagulase Negative Staphylococci MR (methicillin resistant); experiment: MIC by agar-dilution, Coagulase Negative Staphylococci MR; format: cell-based; conditions: 37° C., 24 hours
Method: as §1, §2

[6] = test system: Streptococcus pyogenes C203; experiment: MIC by agar-dilution, Streptococcus pyogenes C203; format: cell-based; conditions: agar with 5% defibrinated horse blood, 5% carbon dioxide, 48 hours
Method: (§3) The following results were obtained on a standard in-vitro test system. The activity is described in terms of the minimum inhibitory concentration (MIC) determined by the agar-dilution technique with an inoculum size of 10^4 CFU/spot. Typically, compounds are active in the range 0.01 to 256 μg/ml. Streptococci and enterococci were tested on agar supplemented with 5% defibrinated horse blood, an inoculum of 10^4 CFU/spot and an incubation temperature of 37° C. in an atmosphere of 5% carbon dioxide for 48 hours—blood is required for the growth of some of the test organisms. Fastidious Gram negative organisms were tested in Mueller-Hinton broth, supplemented with hemin and NAD, grown aerobically for 24 hours at 37° C., and with an innoculum of 5×10^4 CFU/well.

[7] = test system: Enterococcus faecalis; experiment: MIC by agar-dilution, Enterococcus faecalis; format: cell-based; conditions: agar with 5% defibrinated horse blood, 5% carbon dioxide, 48 hours
Method: as §3

[8] = test system: Bacillus subtilis; experiment: MIC by agar-dilution, Bacillus subtilis; format: cell-based
Method: as §1

[9] = test system: Haemophilus influenzae ARC446; experiment: MIC, Haemophilus influenzae ARC446 (Mueller-Hinton broth); format: cell-based; conditions: Mueller-Hinton broth with hemin and NAD, 24 hours, 37° C.
Method: as §3

[10] = test system: Moraxella catarrhalis ARC445; experiment: MIC, Moraxella catarrhalis ARC445 (Mueller-Hinton broth); format: cell-based; conditions: Mueller-Hinton broth with hemin and NAD, 24 hours, 37° C.
Method: as §3

Row | MIC [1] [µg/mL] | MIC [2] [µg/mL] | MIC [3] [µg/mL] | MIC [4] [µg/mL] | MIC [5] [µg/mL] | MIC [6] [µg/mL] | MIC [7] [µg/mL] | MIC [8] [µg/mL] | MIC [9] [µg/mL] | MIC [10] [µg/mL] | melting point [°C] | Structure (SMILES)
1 | 0.125 (≈ 0.305 µM) | 0.25 (≈ 0.609 µM) | 0.25 (≈ 0.609 µM) | 0.06 (≈ 0.146 µM) | 0.13 (≈ 0.317 µM) | 0.25 (≈ 0.609 µM) | 0.25 (≈ 0.609 µM) | 0.25 (≈ 0.609 µM) | 2 (≈ 4.87 µM) | 2 (≈ 4.87 µM) |  | O=C1O[C@@H](Cn2ccnn2)CN1c1cc(F)c(C2=CCS(=O)(=O)CC2)c(F)c1 [Example 44a, (5R)-3-(3,5-Difluoro-4-(3,6-dihydro-1,1-dioxo-2H-thiopyran-4-yl)phenyl)-5-(1,2,3-triazol-1-ylmethyl)oxazolidin-2-one]
2 |  |  |  |  |  |  |  |  |  |  | 140 to 142 | CC(C)(C)c1ccc(N2C[C@H](Cn3ccnn3)OC2=O)cc1 [Example 41, (5R)-3-(4-t-Butylphenyl)-5-(1,2,3-triazol-1-ylmethyl)oxazolidin-2-one]
3 |  |  |  |  |  |  |  |  |  |  | 72 to 73 | CSc1ccc(N2C[C@H](Cn3cccn3)OC2=O)cc1 [Example 43, (5R)-3-(4-Methylthiophenyl)-5-(pyrazol-1-ylmethyl)oxazolidin-2-one]
